Data on 1 compound can be found in ChEMBL document CHEMBL4732067, “Synthesis and evaluation of new compounds bearing 3-(4-aminopiperidin-1-yl)methyl magnolol scaffold as anticancer agents for the treatment of non-small cell lung cancer via targeting autophagy” (Eur J Med Chem, 2021).

Series [1] relates to NCI-H460. Kind of series: Induction of apoptosis in human NCI-H460 cells assessed as early apoptotic cells at 5 uM after 48 hrs by Annexin V-FITC/propidium iodide staining based flow cytometric analysis (reference value: 3.980 %). The series is classed as functional.
A short description of series [2]: Toxicity in nude BALB/c mouse xenografted with C26 cells assessed as change in body weight at 50 mg/kg, po administered once daily and measured every two days. The series is classed as organism-based. As to conditions: in vivo.
For series [3], the system named is NCI-H460. Kind of series: Induction of apoptosis in human NCI-H460 cells assessed as necrotic cells at 10 uM after 48 hrs by Annexin V-FITC/propidium iodide staining based flow cytometric analysis (reference value: 0.498 %). In kind it is functional.
The test system of series [4] is NCI-H460. Kind of series: Induction of apoptosis in human NCI-H460 cells assessed as viable cells at 1 uM after 48 hrs by Annexin V-FITC/propidium iodide staining based flow cytometric analysis (reference value: 91.528 %). In kind it is functional. Conditions: read-out: Activity. A general note: Flow cytometry measures light scatter and fluorescence of single cells or particles in a stream.

Series [5] relates to NCI-H1975. Kind of series: Antiproliferative activity against human NCI-H1975 cells assessed as reduction in cell viability after 72 hrs by MTT assay. The series is classed as functional, cell-based. Conditions: NCI-H1975, 72 h. On the technique in general: Formazan colour is commonly taken as a measure of viable cells.
Series [6] in a line: Antitumor activity against mouse C26 cells xenografted in BALB/c mouse assessed as tumor growth inhibition at 50 mg/kg, po administered once daily and measured every two days by caliper method relative to control. The series is classed as functional. Conditions: 48 h, read-out: TGI.
A short description of series [7]: Antiproliferative activity against human SPCA1 cells expressing wild type EGFR assessed as reduction in cell viability after 72 hrs by MTT assay. The series is classed as functional, cell-based. Conditions: SPCA1, 72 h.
Series [8] can be described thus: Toxicity in nude BALB/c mouse xenografted with C26 cells assessed as abnormalities in kidney size and morphology at 50 mg/kg, po administered once daily. In kind it is organism-based. As to conditions: in vivo.
In series [9] the test system is NCI-H460. Put plainly: Induction of apoptosis in human NCI-H460 cells assessed as necrotic cells at 5 uM after 48 hrs by Annexin V-FITC/propidium iodide staining based flow cytometric analysis (reference value: 0.498 %). The series is classed as functional.
Series [10] has as its system NCI-H460. Put plainly: Induction of cell cycle arrest in human NCI-H460 cells assessed as accumulation at G2/M phase at 0.5 uM incubated for 24 hrs by propidium iodide staining based flow cytometry (reference value: 16.71 %). In kind it is functional.
The subject of series [11] is NCI-H460. Put plainly: Induction of cell cycle arrest in human NCI-H460 cells assessed as accumulation at G2/M phase at 5 uM incubated for 24 hrs by propidium iodide staining based flow cytometry (reference value: 16.71 %). In kind it is functional.
In series [12] the test system is NCI-H460. Kind of series: Antitumor activity against human NCI-H460 cells xenografted in nude BABL/c mouse assessed as tumor growth inhibition at 20 mg/kg, po administered once daily and measured every two days by caliper method relative to control. The series is classed as functional. Conditions: 48 h, read-out: TGI. Background: A xenograft is tissue or cells of one species grown in another, often human tumour cells in immunodeficient mice.

In series [13] the test system is NCI-H460. Kind of series: Induction of apoptosis in human NCI-H460 cells assessed as early apoptotic cells at 1 uM after 48 hrs by Annexin V-FITC/propidium iodide staining based flow cytometric analysis (reference value: 3.980 %). In kind it is functional.
Series [14] in a line: Toxicity in nude BALB/c mouse xenografted with C26 cells assessed as abnormalities in liver size and morphology at 50 mg/kg, po administered once daily. In kind it is organism-based. Conditions: in vivo.
Series [15] deals with NCI-H460. Put plainly: Induction of apoptosis in human NCI-H460 cells assessed as late apoptotic cells at 2 uM after 48 hrs by Annexin V-FITC/propidium iodide staining based flow cytometric analysis (reference value: 3.995 %). In kind it is functional.
For series [16], the system named is NCI-H460. Put plainly: Antitumor activity against human NCI-H460 cells xenografted in nude BABL/c mouse assessed as tumor growth inhibition at 20 mg/kg, po administered once daily and measured every two days in presence of chloroquine diphosphate by caliper method relative to control. Conditions: 48 h, read-out: TGI. The series is classed as functional.

Structures are written as SMILES.

The term IC50 denotes the point on the concentration scale where inhibition reaches its midpoint. For the compound `C=CCc1ccc(OC(C)C)c(-c2cc(CC=C)cc(CN3CCC(N)CC3)c2O)c1`, the Activity was 30.087% in [1]; “Toxic” in [2]; 1.58% in series [3]; “Non-Toxic” in series [8]; 0.608% in series [9]; 21.64% in [10]. The Activity in [11] is given as 17.5%; in [13], 4.467%; in series [14], “Non-Toxic”; in [15], 4.926%. Further, the viability at 1 µM in [4] was 91.1%. The IC50 was found to be 930 nM in series [5] and 1080 nM in [7]. Also, the inhibition in vivo at 50 mg/kg in [6] came to 65.4%. For the same compound, the results for the inhibition in vivo at 20 mg/kg in series [12] and in series [16] were 33.5% and 55.9%, respectively.
